Data reported in ChEMBL document CHEMBL3885881, “DrugMatrix”.

Species: Rattus norvegicus
Test: DrugMatrix - Regimen: Daily Repeat
Type: toxicity, organism-based, Sprague-Dawley
Parameters: regimen Daily Repeat, gender Male, age 6-8 weeks
Conditions: in vivo, ip, 0 mg/kg, route intraperitoneal, dose level Control, […]; for ABSOLUTE BASOPHIL / ABSOLUTE EOSINOPHIL / ABSOLUTE LYMPHOCYTE / ABSOLUTE MONOCYTE / ABSOLUTE SEGMENTED NEUTROPHIL / BASOPHIL / EOSINOPHIL / ERYTHROCYTE COUNT / HEMATOCRIT / HEMOGLOBIN / LEUKOCYTE COUNT / LYMPHOCYTE / MEAN CORPUSCULAR HEMOGLOBIN / MEAN CORPUSCULAR HEMOGLOBIN CONCENTRATION / MEAN CORPUSCULAR VOLUME / MONOCYTE / NEUTROPHIL / NUCLEATED RED BLOOD CELLS / PLATELET COUNT: tissue Blood; for ALANINE AMINOTRANSFERASE / ALBUMIN / ALKALINE PHOSPHATASE / ASPARTATE AMINOTRANSFERASE / BLOOD UREA NITROGEN / CARBON DIOXIDE / CHLORIDE / CHOLESTEROL / CREATININE / GLUCOSE / LACTATE DEHYDROGENASE / LIPASE / PHOSPHORUS / POTASSIUM / SODIUM / TOTAL BILIRUBIN / TOTAL PROTEIN / URIC ACID: tissue Plasma

## ClC(Cl)=C(Cl)C(Cl)=C(Cl)Cl [HEXACHLOROBUTADIENE]
72 h, time 3 day
  ABSOLUTE BASOPHIL: 0 CELLS/uL
  ABSOLUTE EOSINOPHIL: 135.5 CELLS/uL
  ABSOLUTE LYMPHOCYTE: 9030.67 CELLS/uL
  ABSOLUTE MONOCYTE: 286.5 CELLS/uL
  ABSOLUTE SEGMENTED NEUTROPHIL: 1330.67 CELLS/uL
  BASOPHIL: 0%
  EOSINOPHIL: 1.17%
  ERYTHROCYTE COUNT: 5.54 x10E6/uL
  HEMATOCRIT: 35.2%
  HEMOGLOBIN: 12.65 G/DL
  LEUKOCYTE COUNT: 10.78 x10E3/uL
  LYMPHOCYTE: 83.83%
  MEAN CORPUSCULAR HEMOGLOBIN: 22.87 pg
  MEAN CORPUSCULAR HEMOGLOBIN CONCENTRATION: 35.98 G/DL
  MEAN CORPUSCULAR VOLUME: 63.7 fL
  MONOCYTE: 2.5%
  NEUTROPHIL: 12.5%
  NUCLEATED RED BLOOD CELLS: 0 /100WBC
  PLATELET COUNT: 853.5 x10E3/uL
  ALANINE AMINOTRANSFERASE: 45.83 u/L
  ALBUMIN: 4.22 G/DL
  ALKALINE PHOSPHATASE: 344.5 u/L
  ASPARTATE AMINOTRANSFERASE: 85.33 u/L
  BLOOD UREA NITROGEN: 16.17 mg/dL
  CARBON DIOXIDE: 33.33 mmol/L
  CHLORIDE: 101.33 MEQ/L
  CHOLESTEROL: 73.33 mg/dL
  CREATININE: 0.19 mg/dL
  GLUCOSE: 157.67 mg/dL
  LACTATE DEHYDROGENASE: 160.33 u/L
  LIPASE: 9.83 u/L
  PHOSPHORUS: 11.4 mg/dL
  POTASSIUM: 6.1 MEQ/L
  SODIUM: 146.25 MEQ/L
  TOTAL BILIRUBIN: 0.17 mg/dL
  TOTAL PROTEIN: 6.3 G/DL
  URIC ACID: 1.28 mg/dL
120 h, time 5 day
  ABSOLUTE BASOPHIL: 0 CELLS/uL
  ABSOLUTE EOSINOPHIL: 134 CELLS/uL
  ABSOLUTE LYMPHOCYTE: 9272.17 CELLS/uL
  ABSOLUTE MONOCYTE: 286 CELLS/uL
  ABSOLUTE SEGMENTED NEUTROPHIL: 1357.83 CELLS/uL
  BASOPHIL: 0%
  EOSINOPHIL: 1.17%
  ERYTHROCYTE COUNT: 5.83 x10E6/uL
  HEMATOCRIT: 36.17%
  HEMOGLOBIN: 13.1 G/DL
  LEUKOCYTE COUNT: 11.05 x10E3/uL
  LYMPHOCYTE: 83.83%
  MEAN CORPUSCULAR HEMOGLOBIN: 22.5 pg
  MEAN CORPUSCULAR HEMOGLOBIN CONCENTRATION: 36.25 G/DL
  MEAN CORPUSCULAR VOLUME: 62 fL
  MONOCYTE: 2.67%
  NEUTROPHIL: 12.33%
  NUCLEATED RED BLOOD CELLS: 0 /100WBC
  PLATELET COUNT: 806.67 x10E3/uL
  ALANINE AMINOTRANSFERASE: 50.83 u/L
  ALBUMIN: 4.13 G/DL
  ALKALINE PHOSPHATASE: 358.17 u/L
  ASPARTATE AMINOTRANSFERASE: 148.83 u/L
  BLOOD UREA NITROGEN: 13.83 mg/dL
  CARBON DIOXIDE: 35.83 mmol/L
  CHLORIDE: 99.33 MEQ/L
  CHOLESTEROL: 80.5 mg/dL
  CREATININE: 0.19 mg/dL
  GLUCOSE: 156.33 mg/dL
  LACTATE DEHYDROGENASE: 238.17 u/L
  LIPASE: 9.17 u/L
  PHOSPHORUS: 12.53 mg/dL
  POTASSIUM: 6.34 MEQ/L
  SODIUM: 145.15 MEQ/L
  TOTAL BILIRUBIN: 0.18 mg/dL
  TOTAL PROTEIN: 6.07 G/DL
  URIC ACID: 1.3 mg/dL
Time 14 day
  ABSOLUTE BASOPHIL: 0 CELLS/uL
  ABSOLUTE EOSINOPHIL: 56.5 CELLS/uL
  ABSOLUTE LYMPHOCYTE: 12701 CELLS/uL
  ABSOLUTE MONOCYTE: 330.33 CELLS/uL
  ABSOLUTE SEGMENTED NEUTROPHIL: 2428.83 CELLS/uL
  BASOPHIL: 0%
  EOSINOPHIL: 0.33%
  ERYTHROCYTE COUNT: 6.18 x10E6/uL
  HEMATOCRIT: 36.42%
  HEMOGLOBIN: 13.22 G/DL
  LEUKOCYTE COUNT: 15.52 x10E3/uL
  LYMPHOCYTE: 82.5%
  MEAN CORPUSCULAR HEMOGLOBIN: 21.38 pg
  MEAN CORPUSCULAR HEMOGLOBIN CONCENTRATION: 36.32 G/DL
  MEAN CORPUSCULAR VOLUME: 58.92 fL
  MONOCYTE: 2.17%
  NEUTROPHIL: 15%
  NUCLEATED RED BLOOD CELLS: 0 /100WBC
  PLATELET COUNT: 999 x10E3/uL
  ALANINE AMINOTRANSFERASE: 39.17 u/L
  ALBUMIN: 4.05 G/DL
  ALKALINE PHOSPHATASE: 275.17 u/L
  ASPARTATE AMINOTRANSFERASE: 84.5 u/L
  BLOOD UREA NITROGEN: 12 mg/dL
  CARBON DIOXIDE: 29.5 mmol/L
  CHLORIDE: 101 MEQ/L
  CHOLESTEROL: 73.83 mg/dL
  CREATININE: 0.19 mg/dL
  GLUCOSE: 146.5 mg/dL
  LACTATE DEHYDROGENASE: 285.67 u/L
  LIPASE: 9 u/L
  PHOSPHORUS: 11.67 mg/dL
  POTASSIUM: 6.82 MEQ/L
  SODIUM: 143.57 MEQ/L
  TOTAL BILIRUBIN: 0.13 mg/dL
  TOTAL PROTEIN: 6.23 G/DL
  URIC ACID: 1.75 mg/dL
